Test results published in patent US20060172361A1, “Assay for detection of translocase enzyme activity in drug screening” (AstraZeneca AB, priority 2000, published 2006).

What was measured:
transferase enzyme = assay: Scintillation proximity assay of transferase alone, with pre-formed Lipid I and Tunicamycin block, using E. coli AMA1004 ΔponB membranes (Example 4); assay type: biochemical, Escherichia coli; conditions: after subtracting 0% reaction readings
Experimental: Microbiol., (1985), 131, 2839-2845. The plate was incubated for 20 min at 37° C.
(ii) Tunicamycin was then added to a final concentration of 10 μg/ml, followed by a test compound (e.g. Vancomycin or Nisin) of varying concentration in dimethyl sulphoxide. Nisin and Vancomycin are known antagonists of the transferase enzyme.
(iii) Then to the reaction well, in a 5 μl volume, the substrate for the transferase was added: 2.5 μM tritiated UDP-N-acetyl glucosamine (0.5 μCi per well). The microtitre plate was incubated for 5 min at 37° C.
(iv) The reaction was terminated by diluting out the radiolabel i.e. by addition of 25 μl of 200 μM unlabelled UDP-GlcNAc.

[1] = system: translocase and transferase enzymes; assay: Scintillation proximity assay of Lipid II synthesis (translocase plus transferase) with lysozyme-prepared E. coli AMA1004 membranes (Example 3); conditions: 100 μM test compound; after subtracting 0% reaction readings
Experimental: (i) The wells of a microtitre plate were individually filled with a total volume of 25 μl of a reaction mixture comprising an aqueous buffer solution of 50 mM HEPES-ammonia (N-[2-Hydroxyethyl]piperazine-N′-[2-ethanesulfonic acid]) (pH 7.5), and 10 mM magnesium chloride 15 μM UDP-MurNAc-L-alanine-γ-D-glutamic acid-m-diaminopimelic acid-D-alanine-D-alanine, 2.5 μM tritiated UDP-N-acetyl glucosamine (0.2 μCi per well), 6 μg of Escherichia coli AMA1004 cell membranes prepared as described below and a solution of test compound (e.g. Tunicamycin, Vancomycin) of varying concentration in 4% dimethylsulphoxide.
Four wells of the microtitre plate were used as controls: two wells contained no UDP-N-acetylmuramylpentapeptide (0% reaction controls) and a further two wells contained no test compound (100% reaction controls).
If the purpose of the screen is to study the effect of an inhibitor of the transferase or translocase the test compound is added along with the substrates at step (i).
The E. coli membranes were prepared as follows.
Four to five colonies of the bacteria from an LB (Luria Bertani medium) agar plate were inoculated into 5 ml LB-broth and grown during the day (for 6-8 hours) at 37° C. […]
The plate was left for 3 hours/overnight at room temperature before being counted in the “Microbeta Trilux” counter.

| Compound | % Enzyme Activity (transferase enzyme; 100 μM test compound) | % Inhibition [1] [%] | % Enzyme Activity (transferase enzyme; 10 μg/ml test compound) |
| --- | --- | --- | --- |
| CN[C@H](CC(C)C)C(=O)N[C@H]1C(=O)N[C@@H](CC(N)=O)C(=O)N[C@H]2C(=O)N[C@H]3C(=O)N[C@H](C(=O)N[C@H](C(=O)O)c4cc(O)cc(O)c4-c4cc3ccc4O)[C@H](O)c3ccc(c(Cl)c3)Oc3cc2cc(c3O[C@@H]2O[C@H](CO)[C@@H](O)[C@H](O)[C@H]2O[C@H]2C[C@](C)(N)[C@H](O)[C@H](C)O2)Oc2ccc(cc2Cl)[C@H]1O [Vancomycin] | ˜50% | 82 |  |
| Nisin |  |  | ˜30% |
